From patent publication US9035074B2, “Pyrrolo[2,3-D]pyrimidine derivatives” (Pfizer Inc., priority 2013, dated 2015)

Target: JAK3 (Homo sapiens (Human), UniProt P52333)
Assay: JAK Caliper Enzyme Assay at 1 mM ATP (JAK3)
Type: biochemical

Chain of JAK3 (P52333 whole entry, species assumed): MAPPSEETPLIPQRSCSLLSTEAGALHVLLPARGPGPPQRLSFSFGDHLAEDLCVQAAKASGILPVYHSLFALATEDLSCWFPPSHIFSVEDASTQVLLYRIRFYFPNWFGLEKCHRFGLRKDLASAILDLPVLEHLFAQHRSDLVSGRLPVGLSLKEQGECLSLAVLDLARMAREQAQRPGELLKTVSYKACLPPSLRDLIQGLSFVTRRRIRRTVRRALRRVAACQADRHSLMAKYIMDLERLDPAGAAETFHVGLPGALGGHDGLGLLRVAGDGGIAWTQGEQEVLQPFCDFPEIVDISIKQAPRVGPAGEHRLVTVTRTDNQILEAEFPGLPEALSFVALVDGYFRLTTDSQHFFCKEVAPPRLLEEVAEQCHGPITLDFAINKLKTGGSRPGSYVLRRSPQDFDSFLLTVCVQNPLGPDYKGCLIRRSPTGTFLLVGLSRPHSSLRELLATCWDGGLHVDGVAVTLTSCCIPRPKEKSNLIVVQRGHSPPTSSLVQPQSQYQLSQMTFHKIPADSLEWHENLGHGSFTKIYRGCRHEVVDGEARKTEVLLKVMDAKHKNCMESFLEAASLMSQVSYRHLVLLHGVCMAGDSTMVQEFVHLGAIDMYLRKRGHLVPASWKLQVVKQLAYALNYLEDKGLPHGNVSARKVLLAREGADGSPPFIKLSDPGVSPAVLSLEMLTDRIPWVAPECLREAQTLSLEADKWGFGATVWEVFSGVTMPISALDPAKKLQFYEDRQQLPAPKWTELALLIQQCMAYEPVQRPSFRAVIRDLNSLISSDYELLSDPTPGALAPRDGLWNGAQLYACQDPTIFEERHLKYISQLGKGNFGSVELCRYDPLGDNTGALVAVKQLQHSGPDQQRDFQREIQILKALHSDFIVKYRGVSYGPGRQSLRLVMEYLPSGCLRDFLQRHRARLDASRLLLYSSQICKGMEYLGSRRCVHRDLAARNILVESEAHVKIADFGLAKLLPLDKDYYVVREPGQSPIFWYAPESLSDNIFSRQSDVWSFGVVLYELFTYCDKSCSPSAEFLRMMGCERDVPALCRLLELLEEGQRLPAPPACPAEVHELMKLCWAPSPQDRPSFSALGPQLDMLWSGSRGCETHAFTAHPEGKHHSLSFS

Compound | IC50 [µM]
CN(c1ncnc2[nH]ccc12)[C@H]1C[C@@H](NS(=O)(=O)N2CC[C@@H](C#N)C2)C1 (mixture of isomers) [Example 17A, (R)- and (S)-3-Cyano-N-{cis-3-[methyl(7H-pyrrolo[2,3-d]pyrimidin-4-yl)amino]cyclobutyl}pyrrolidine-1-sulfonamide] | > 10
CN(c1ncnc2[nH]ccc12)[C@H]1C[C@@H](NS(=O)(=O)[C@H]2C[C@@](C)(CC#N)C2)C1 [Example 7A, cis-3-(cyanomethyl)-3-methyl-N-{cis-3-[methyl(7H-pyrrolo[2,3-d]pyrimidin-4-yl)amino]cyclobutyl}-cyclo-butanesulfonamide] | > 10
CN(c1ncnc2[nH]ccc12)[C@H]1C[C@@H](NS(=O)(=O)N2C[C@H]3C[C@@H](C2)O3)C1 [Example 19, N-{cis-3-[Methyl(7H-pyrrolo[2,3-d]pyrimidin-4-yl)amino]cyclobutyl}-6-oxa-3-azabicyclo[3.1.1]heptane-3-sulfonamide] | > 10
CN(c1ncnc2[nH]ccc12)[C@H]1C[C@@H](CS(=O)(=O)CCC2CC2)C1 [Example 32, N-(cis-3-{[(2-Cyclopropylethyl)sulfonyl]methyl}cyclobutyl)-N-methyl-7H-pyrrolo[2,3-d]pyrimidin-4-amine] | > 10
Cc1ncc(S(=O)(=O)N[C@H]2C[C@@H](N(C)c3ncnc4[nH]ccc34)C2)s1 [Example 38, 2-Methyl-N-{cis-3-[methyl(7H-pyrrolo[2,3-d]pyrimidin-4-yl)amino]cyclobutyl}-1,3-thiazole-5-sulfonamide] | > 10
CN(c1ncnc2[nH]ccc12)[C@H]1C[C@@H](NS(=O)(=O)C2CN(C3CC3)C2)C1 [Example 15, 1-Cyclopropyl-N-{cis-3-[methyl(7H-pyrrolo[2,3-d]pyrimidin-4-yl)amino]cyclobutyl}azetidine-3-sulfonamide] | > 10
CN(c1ncnc2[nH]ccc12)[C@H]1C[C@@H](NS(=O)(=O)[C@H]2C[C@@H](CC#N)C2)C1 [Example 4A, cis-3-(cyanomethyl)-N-{cis-3-[methyl(7H-pyrrolo[2,3-d]pyrimidin-4-yl)amino]-cyclobutyl}cyclobutane-sulfonamide] | > 10
CN(c1ncnc2[nH]ccc12)[C@H]1C[C@@H](NS(=O)(=O)[C@H]2C[C@H](CC#N)C2)C1 [Example 4B, trans-3-(cyanomethyl)-N-{cis-3-[methyl(7H-pyrrolo[2,3-d]pyrimidin-4-yl)amino]cyclobutyl}-cyclobutanesulfonamide] | > 10
CN(c1ncnc2[nH]ccc12)[C@H]1C[C@@H](NS(=O)(=O)[C@H]2C[C@](C)(CC#N)C2)C1 [Example 7B, trans-3-(cyanomethyl)-3-methyl-N-{cis-3-[methyl(7H-pyrrolo[2,3-d]pyrimidin-4-yl)amino]cyclobutyl}cyclo-butanesulfonamide] | > 10
CN(c1ncnc2[nH]ccc12)[C@H]1C[C@@H](CS(=O)(=O)N2CCC(F)(F)CC2)C1 [Example 25, N-(cis-3-{[(4,4-Difluoropiperidin-1-yl)sulfonyl]methyl}cyclobutyl)-N-methyl-7H-pyrrolo[2,3-d]pyrimidin-4-amine] | > 10
